Experimental data reported in patent US20110070232A1, “Combination Therapy with an Antitumor Alkaloid” (Pharma Mar, S.A., priority 2008, published 2011).
Read-outs that look alike come from different tables or passages of the source.

Assays:
Type in all cases: in vivo, mice
CaLu-6 tumors = tested on: CaLu-6 tumors
Text: (§1) Female athymic nude mice (Harlan Sprague Dawley, Madison, Wis.) were utilized for all experiments. Animals were housed in ventilated rack caging with food and water ad libitum. The mice were acclimated for at least 5 days prior to tumor implantation.
The tumor model used in this study was CaLu-6 cell line which is a human lung cell line obtained from the ATCC (Manassas, Va.). […] Cells from in vitro passage 10 were those implanted SC into study mice.
Treatments were initiated on DPI 9.
(§2) Tumor size measurements were recorded 2-3 times/week from the treatment initiation until the termination of the study.
(§3) Mean, standard deviation and standard error of the mean were determined for tumor volume for all animal groups at all assessments. Student's t test was performed on tumor volumes at each measurement day, including at the end of the study, to determine whether there were any statistically significant differences between combination treatment groups and single monotherapy treatment groups.

NCI-H460 tumors = tested on: NCI-H460 tumors
Text: as §1
The tumor model used in this study was NCI-H460 cell line which is a human lung cell line obtained from the ATCC (Manassas, Va.). […] Cells from in vitro passage 16 were those implanted SC into study mice.
Treatments were initiated on DPI 8.
as §2, §3

H-Meso-1 tumors = settings: G4 pemetrexed 100 mg/kg/day IP
Experimental: as §1
The tumor model used in this study was H-Meso-1 cell line which is a human mesothelioma cell line obtained from the DTP, DCTD tumor repository. […] Cells were implanted SC into study mice using a 1 ml syringe with a 13G trocar: 5×10^6 cells/mouse in 0.2 ml 50% Matrigel/50% RPMI medium of H-Meso-1 without serum or antibiotics. Bacterial culture was taken on cells used to implant the study.
Treatments were initiated on DPI 6.
as §2, §3

[1] = day 13, G3 pemetrexed 125 mg/kg/day IP
[2] = day 13, G4 pemetrexed 100 mg/kg/day IP
[3] = day 16, G3 pemetrexed 125 mg/kg/day IP
[4] = day 16, G4 pemetrexed 100 mg/kg/day IP
[5] = day 20, G3 pemetrexed 125 mg/kg/day IP
[6] = day 20, G4 pemetrexed 100 mg/kg/day IP
[7] = day 23, G3 pemetrexed 125 mg/kg/day IP
[8] = day 23, G4 pemetrexed 100 mg/kg/day IP

Nc1nc2[nH]cc(CCc3ccc(C(=O)N[C@@H](CCC(=O)O)C(=O)O)cc3)c2c(=O)[nH]1 [pemetrexed]
% T/C on day 9 (CaLu-6 tumors; G3 pemetrexed 125 mg/kg/day IP): 99.6% | % T/C on day 16 (CaLu-6 tumors; G3 pemetrexed 125 mg/kg/day IP): 86.6% | % T/C on day 20 (CaLu-6 tumors; G3 pemetrexed 125 mg/kg/day IP): 104.8% | % T/C on day 23 (CaLu-6 tumors; G3 pemetrexed 125 mg/kg/day IP): 98.7% | % T/C on day 27 (CaLu-6 tumors; G3 pemetrexed 125 mg/kg/day IP): 87.9% | % T/C on day 30 (CaLu-6 tumors; G3 pemetrexed 125 mg/kg/day IP): 90.0% | % T/C on day 34 (CaLu-6 tumors; G3 pemetrexed 125 mg/kg/day IP): 89.1% | % T/C on day 42 (CaLu-6 tumors; G3 pemetrexed 125 mg/kg/day IP): 94.2% | % T/C on day 9 (CaLu-6 tumors; G4 pemetrexed 100 mg/kg/day IP): 103.4% | % T/C on day 13 (CaLu-6 tumors; G4 pemetrexed 100 mg/kg/day IP): 126.5% | % T/C on day 16 (CaLu-6 tumors; G4 pemetrexed 100 mg/kg/day IP): 103.5% | % T/C on day 20 (CaLu-6 tumors; G4 pemetrexed 100 mg/kg/day IP): 120.6% | % T/C on day 23 (CaLu-6 tumors; G4 pemetrexed 100 mg/kg/day IP): 111.5% | % T/C on day 27 (CaLu-6 tumors; G4 pemetrexed 100 mg/kg/day IP): 101.8% | % T/C on day 30 (CaLu-6 tumors; G4 pemetrexed 100 mg/kg/day IP): 105.8% | % T/C on day 34 (CaLu-6 tumors; G4 pemetrexed 100 mg/kg/day IP): 102.2% | % T/C on day 42 (CaLu-6 tumors; G4 pemetrexed 100 mg/kg/day IP): 100.5% | % Inhibition (CaLu-6 tumors; day 9, G3 pemetrexed 125 mg/kg/day IP): 0.4% | % Inhibition (CaLu-6 tumors; day 9, G4 pemetrexed 100 mg/kg/day IP): −3.4% | % Inhibition (CaLu-6 tumors; [1]): −16.6% | % Inhibition (CaLu-6 tumors; [2]): −26.5% | % Inhibition (CaLu-6 tumors; [3]): 13.4% | % Inhibition (CaLu-6 tumors; [4]): −3.5% | % Inhibition (CaLu-6 tumors; [5]): −4.8% | % Inhibition (CaLu-6 tumors; [6]): −20.6% | % Inhibition (CaLu-6 tumors; [7]): 1.3% | % Inhibition (CaLu-6 tumors; [8]): −11.5% | % Inhibition (CaLu-6 tumors; day 27, G3 pemetrexed 125 mg/kg/day IP): 12.1% | % Inhibition (CaLu-6 tumors; day 27, G4 pemetrexed 100 mg/kg/day IP): −1.8% | % Inhibition (CaLu-6 tumors; day 30, G3 pemetrexed 125 mg/kg/day IP): 10.0% | % Inhibition (CaLu-6 tumors; day 30, G4 pemetrexed 100 mg/kg/day IP): −5.8% | % Inhibition (CaLu-6 tumors; day 34, G3 pemetrexed 125 mg/kg/day IP): 10.9% | % Inhibition (CaLu-6 tumors; day 34, G4 pemetrexed 100 mg/kg/day IP): −2.2% | % Inhibition (CaLu-6 tumors; day 42, G3 pemetrexed 125 mg/kg/day IP): 5.8% | % Inhibition (CaLu-6 tumors; day 42, G4 pemetrexed 100 mg/kg/day IP): −0.5% | % T/C on day 8 (NCI-H460 tumors; G3 pemetrexed 125 mg/kg/day IP): 102.6% | % T/C on day 10 (NCI-H460 tumors; G3 pemetrexed 125 mg/kg/day IP): 119.0% | % T/C on day 13 (NCI-H460 tumors; G3 pemetrexed 125 mg/kg/day IP): 67.5% | % T/C on day 16 (NCI-H460 tumors; G3 pemetrexed 125 mg/kg/day IP): 71.0% | % T/C on day 20 (NCI-H460 tumors; G3 pemetrexed 125 mg/kg/day IP): 70.4% | % T/C on day 23 (NCI-H460 tumors; G3 pemetrexed 125 mg/kg/day IP): 85.4% | % T/C on day 28 (NCI-H460 tumors; G3 pemetrexed 125 mg/kg/day IP): 72.9% | % T/C on day 31 (NCI-H460 tumors; G3 pemetrexed 125 mg/kg/day IP): 82.6% | % T/C on day 8 (NCI-H460 tumors; G4 pemetrexed 100 mg/kg/day IP): 103.0% | % T/C on day 10 (NCI-H460 tumors; G4 pemetrexed 100 mg/kg/day IP): 107.3% | % T/C on day 13 (NCI-H460 tumors; G4 pemetrexed 100 mg/kg/day IP): 75.7% | % T/C on day 16 (NCI-H460 tumors; G4 pemetrexed 100 mg/kg/day IP): 72.4% | % T/C on day 20 (NCI-H460 tumors; G4 pemetrexed 100 mg/kg/day IP): 72.9% | % T/C on day 23 (NCI-H460 tumors; G4 pemetrexed 100 mg/kg/day IP): 86.3% | % T/C on day 28 (NCI-H460 tumors; G4 pemetrexed 100 mg/kg/day IP): 76.8% | % T/C on day 31 (NCI-H460 tumors; G4 pemetrexed 100 mg/kg/day IP): 96.9% | % Inhibition (NCI-H460 tumors; day 8, G3 pemetrexed 125 mg/kg/day IP): −2.6% | % Inhibition (NCI-H460 tumors; day 8, G4 pemetrexed 100 mg/kg/day IP): −3.0% | % Inhibition (NCI-H460 tumors; day 10, G3 pemetrexed 125 mg/kg/day IP): −19.0% | % Inhibition (NCI-H460 tumors; day 10, G4 pemetrexed 100 mg/kg/day IP): −7.3% | % Inhibition (NCI-H460 tumors; [1]): 32.5% | % Inhibition (NCI-H460 tumors; [2]): 24.3% | % Inhibition (NCI-H460 tumors; [3]): 29.0% | % Inhibition (NCI-H460 tumors; [4]): 27.6% | % Inhibition (NCI-H460 tumors; [5]): 29.6% | % Inhibition (NCI-H460 tumors; [6]): 27.1% | % Inhibition (NCI-H460 tumors; [7]): 14.6% | % Inhibition (NCI-H460 tumors; [8]): 13.7% | % Inhibition (NCI-H460 tumors; day 28, G3 pemetrexed 125 mg/kg/day IP): 27.1% | % Inhibition (NCI-H460 tumors; day 28, G4 pemetrexed 100 mg/kg/day IP): 23.2% | % Inhibition (NCI-H460 tumors; day 31, G3 pemetrexed 125 mg/kg/day IP): 17.4% | % Inhibition (NCI-H460 tumors; day 31, G4 pemetrexed 100 mg/kg/day IP): 3.1% | % T/C on day 6 (H-Meso-1 tumors): 102.1% | % T/C on day 7 (H-Meso-1 tumors): 100.2% | % T/C on day 9 (H-Meso-1 tumors): 109.0% | % T/C on day 12 (H-Meso-1 tumors): 105.7% | % T/C on day 14 (H-Meso-1 tumors): 124.2% | % T/C on day 16 (H-Meso-1 tumors): 128.6% | % T/C on day 19 (H-Meso-1 tumors): 110.4% | % T/C on day 22 (H-Meso-1 tumors): 100.8% | % T/C on day 26 (H-Meso-1 tumors): 122.9% | % Inhibition (H-Meso-1 tumors; day 6): −2.1% | % Inhibition (H-Meso-1 tumors; day 7): −0.2% | % Inhibition (H-Meso-1 tumors; day 9): −9.0% | % Inhibition (H-Meso-1 tumors; day 12): −5.7% | % Inhibition (H-Meso-1 tumors; day 14): −24.2% | % Inhibition (H-Meso-1 tumors; day 16): −28.6% | % Inhibition (H-Meso-1 tumors; day 19): −10.4% | % Inhibition (H-Meso-1 tumors; day 22): −0.8% | % Inhibition (H-Meso-1 tumors; day 26): −22.9% | % Inhibition (H-Meso-1 tumors; day 29): −22.4%
